Earlier results on one compound are cited in patent US20090325918A1, “Synthesis and separation of optically active isomers and cyclopropyl derivatives of spironolactone and their biological action” (priority 2008, published 2009).

The subject of data set [1] is hypertensive patients. The note with it: hypertensive patients using spironolactone for therapy; 1% of men in the placebo group.
Data set [2] has as its system patients with congestive heart failure (CHF).

`CC(=O)S[C@@H]1CC2=CC(=O)CC[C@]2(C)[C@H]2CC[C@@]3(C)[C@@H](CC[C@@]34CCC(=O)O4)[C@H]12` [spironolactone, 17-hydroxy-7-alpha-mercapto-3-oxo-17-alpha-pregn-4-ene-21-carboxylic acid gamma-lactone acetate]: the Water solubility result is “poor”. The “Gynecomastia or tender breast enlargement, occurrence in patients” value in data set [1] is given as 10%. Also, the “Reduction in mortality (risk of death)” value in data set [2] (CHF patients taking digoxin and a loop diuretic, spironolactone with digitalis and ACE inhibitor) is given as 30%. The “Patients who discontinued treatment because of adverse events” value in data set [2] (spironolactone group) is 8%. Besides, in data set [2] (spironolactone treated group vs placebo group), the “Frequency of hospitalization for worsening heart failure, lower than in the placebo group” value was 35%.
